This is an account of results in US11274079B2 (DALIAN INSTITUTE OF CHEMICAL PHYSICS, CHINESE ACADEMY OF …, priority 2018, dated 2022).

For one assay, the system named is guinea pigs. Kind of assay: Acetylcholine chloride/histamine spray-induced asthma, incubation period. The format is in vivo, guinea pig. The method, then: On the first day, guinea pigs are placed in a 38×38×38 cm (about 55 L) of home-made container with an atomizing nozzle having a diameter of about 3 cm above the side wall. Ultrasonic atomizer (YUWELL, model 402AI) is used to spray normal saline containing acetylcholine chloride (20 g/L) and histamine (1 g/L) for 15 s. The incubation period of asthma of guinea pigs (also is called asthma incubation period, which is the time from the end of the spray to asthma attack, extreme breathing difficulty until convulsion and fall) is recorded after the cessation of spraying. Animals with an incubation period of less than 120 s are qualified sensitive animals.
2. Experimental Processes
On the second day, the qualified animals are selected for experiments, wherein one group (comprising 4 guinea pigs) is used as the control group, one group (comprising 4 guinea pigs) is experimented with positive medicine […] and one group (comprising 10 guinea pigs) is experimented with the drug to be tested. The animals are placed in a container, and sprayed with normal saline, tiotropium bromide and the compound to be tested. Both tiotropium bromide and the compound to be tested are soluble in normal saline at a concentration of 0.2 mM. After spraying for 10 min, the guinea pigs are taken out and put into another container of the same size. After 10 min, normal saline containing acetylcholine chloride (20 g/L) and histamine (1 g/L) is sprayed into the container for 15 s. The incubation periods of asthma of the guinea pigs are observed and recorded. If there is no convulsion and fall after 240 s, the incubation period is recorded as 240 s.

In the next assay the target is T1, M3 receptor (Homo sapiens, UniProt P20309).
T1 construct: HT-29 cell model endogenously highly expressing the M3 receptor; endogenous in cells; host or cells: HT-29
T1 sequence (P20309 whole entry): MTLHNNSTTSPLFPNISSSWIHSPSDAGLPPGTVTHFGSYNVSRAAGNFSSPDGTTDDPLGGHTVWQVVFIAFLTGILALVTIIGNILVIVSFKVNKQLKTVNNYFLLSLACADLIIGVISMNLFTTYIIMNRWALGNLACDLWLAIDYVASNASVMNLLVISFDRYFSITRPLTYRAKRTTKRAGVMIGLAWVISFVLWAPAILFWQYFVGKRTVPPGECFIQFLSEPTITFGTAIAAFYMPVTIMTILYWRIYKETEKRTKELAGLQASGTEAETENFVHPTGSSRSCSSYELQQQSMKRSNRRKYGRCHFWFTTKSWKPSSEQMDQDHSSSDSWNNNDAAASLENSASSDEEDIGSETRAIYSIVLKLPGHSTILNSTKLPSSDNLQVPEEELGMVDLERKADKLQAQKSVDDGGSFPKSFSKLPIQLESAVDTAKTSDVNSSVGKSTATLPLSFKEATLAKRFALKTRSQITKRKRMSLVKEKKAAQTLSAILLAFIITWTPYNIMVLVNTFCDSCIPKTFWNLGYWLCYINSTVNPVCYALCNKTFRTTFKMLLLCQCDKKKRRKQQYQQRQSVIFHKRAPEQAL
As to the kind of experiment: DMR assay, antagonism of acetylcholine in HT-29 cells endogenously expressing the M3 receptor. To be noted: for IC50: HT-29 cells, DMR, acetylcholine 16 μM, 1 h pretreatment, time point 30 min; for antagonistic activity against the M3 receptor, in words: structure-activity comparison with parent compound. In kind it is cell-based. The method, then:
(§1) The present invention relates to the antagonistic activity of the compound against the muscarinic receptor, which is primarily assessed by a cell-level dynamic mass redistribution (DMR) assay method. All tests are carried out on Epic platform, wherein the target model of the muscarinic receptor M1 is the CHO-K1 ceil model stably transfecting the M1 receptor, the target model of M3 is the HT-29 cell model endogenously highly expressing the M3 receptor, and the selected probe molecule is acetylcholine. Tire probe molecule acetylcholine is dissolved in water, while all other compounds are dissolved in DMSO.
The inoculated cell plate is placed in a cell incubator for culture for 20 h until the cell growth and fusion degree reaches about 95%, and the activity assay is carried out. The culture medium is sucked from the cultured cells, the buffer salt specified by the test is added with a volume of 30 μL per orifice and is stabilized for 1 h. After the baseline is stable, a 2-min baseline is established, and different concentrations of compounds to be tested are added to test the cultured cells for 1 h.

A further assay concerns the target T2, M1 receptor (Homo sapiens, UniProt P11229).
T2 construct: expressed in transfected cells; host or cells: CHO-K1
T2 sequence (P11229 1-460): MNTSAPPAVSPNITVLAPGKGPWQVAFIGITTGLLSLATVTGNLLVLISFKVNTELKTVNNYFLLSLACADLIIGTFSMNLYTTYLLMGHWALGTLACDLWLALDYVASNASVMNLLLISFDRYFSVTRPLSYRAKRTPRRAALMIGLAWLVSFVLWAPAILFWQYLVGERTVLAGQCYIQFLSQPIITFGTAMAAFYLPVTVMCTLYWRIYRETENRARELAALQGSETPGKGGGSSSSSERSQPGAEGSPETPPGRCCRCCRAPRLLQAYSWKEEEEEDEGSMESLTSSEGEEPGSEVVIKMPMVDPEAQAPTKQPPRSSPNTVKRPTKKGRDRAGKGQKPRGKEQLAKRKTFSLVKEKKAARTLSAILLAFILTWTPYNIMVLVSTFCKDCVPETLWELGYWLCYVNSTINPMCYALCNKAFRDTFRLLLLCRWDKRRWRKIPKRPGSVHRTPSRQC
Kind of assay: DMR assay, antagonism of acetylcholine in CHO-K1 cells stably transfecting the M1 receptor. The format is cell-based. To be noted: for antagonistic activity against the M1 receptor, in words: structure-activity comparison with parent compound; for IC50: CHO-K1-M1 cells, DMR, acetylcholine 1 μM, 1 h pretreatment, time point 5 min. The method, then:
as §1
The inoculated cell plate is placed in a cell incubator for culture for 12 h until the cell growth and fusion degree reaches about 95%, and the activity assay is carried out. The culture medium is sucked from the cultured ceils, the buffer salt specified by the test is added with a volume of 30 μL per orifice and is stabilized for 1 h. After the baseline is stable, a 2-min baseline is established, and different concentrations of compounds to be tested are added to test the cultured cells for 1 h. After the cells are pretreated with the compounds to be tested for 1 h, the 2-min baseline is re-established, and acetylcholine having a concentration of 1 μM is added to test the cultured cells for 1 h.

A word on the IC50: it is the concentration that inhibits the measured activity by half. On to `C[N+]1(C)CCCCC1CC(c1ccccc1)c1cc(F)ccc1O.[Br-]` (stereo not drawn) [I-10a-1, 2-[2-(2-hydroxy-5-fluorophenyl)-phenylethyl]-N,N-dimethylpiperidine bromide], for which the asthma incubation period in the assay with guinea pigs (0.2 mM in normal saline sprayed 10 min, challenge after 10 min, recorded as 240 s if no convulsion and fall) is recorded as 240 s. Also, the “efficacy in asthma model, in words” value with guinea pigs (0.2 mM spray) is given as “good efficacy”. Also, the concentration for half-maximal inhibition (IC50) on M3 receptor stood at 37 ± 4.3 nM.

On to `Cc1ccc(S(=O)(=O)Oc2ccc(C)cc2C(CC2CCCCN2C)c2ccccc2)cc1` (stereo not drawn) [II-26, 2-[2-(2-methylp-toluenesulfonategroup-5-methyl-phenyl)-phenethyl]-N-methylpiperidine], for which, on M3 receptor, the IC50 was 2620 ± 425 nM and the “antagonistic activity against the M3 receptor, in words” value is “the activity is greatly decreased”. For the same molecule, the “antagonistic activity against the M1 receptor, in words” value on M1 receptor was “the activity is greatly decreased”.

With `CCN1CCCCC1CC(c1ccccc1)c1cc(C)ccc1O` (stereo not drawn) [II-18, 2-[2-(2-hydroxy-5-methyl-phenyl)-phenethyl]-N-ethylpiperidine], the IC50 at M3 receptor amounted to 239 ± 33.2 nM; on M1 receptor it was 296 ± 62.9 nM.

For `Cc1ccc(C(CC2CCCC[N+]2(C)C)c2cc(C)ccc2O)cc1` (stereo not drawn) [I-15, 2-[2-(4-tolyl)-2-(2-hydroxy-5-methyl-phenyl)-ethyl]-N,N-dimethylpiperidine Bromide], the IC50 on M3 receptor turned out to be 78 ± 31 nM; at M1 receptor, 48.3 ± 11 nM.

`Cc1ccc(O)c(C(CC2CCCC[N+]2(C)C)c2ccccc2)c1` (stereo not drawn) [I-4a-2-Br, 2-[2-(2-hydroxy-5-methyl-phenyl)-phenethyl]-N,N-dimethylpiperidine Bromide]: the IC50 was 1210 ± 120 nM at M3 receptor and 832 ± 132 nM on M1 receptor.

Regarding `Cc1ccc(O)c(C(CC2CCCC[N+]2(C)C)c2ccsc2)c1` (stereo not drawn) [I-22, 2-[2-(3-thienyl)-2-(2-hydroxy-5-methyl-phenyl)-ethyl]-N,N-dimethylpiperidine Bromide], the IC50 turned out to be 10.7 ± 1.6 nM on M3 receptor and 25.7 ± 0.8 nM on M1 receptor.

In the case of `CN1CCCCC1CC(c1ccccc1)c1ccccc1` (stereo not drawn) [II-1, 2-(2,2-Diphenylethyl)-N-Methylpiperidine], the IC50 was over 10000 nM on M3 receptor and 3130 ± 240 nM at M1 receptor.

Consider `CN1CCCCC1CC(c1ccccc1)c1cccs1` (stereo not drawn) [II-21], for which the IC50 on M3 receptor was 2420 ± 330 nM; at M1 receptor, 3680 ± 810 nM.

`COc1ccc(O)c(C(CC2CCCC[N+]2(C)C)c2ccccc2)c1` (stereo not drawn) [I-9, 2-[2-(2-hydroxy-5-methoxyphenyl)-phenethyl]-N,N-dimethylpiperidine Bromide]: the values for the IC50 at M3 receptor and on M1 receptor were 160 ± 20.3 nM and 100 ± 10.2 nM, respectively.

Take `CN1CCCCC1CC(c1ccccc1O)c1ccccc1O` (racemic) [II-3, 2-[2,2-bis(2-hydroxy-phenyl)-ethyl]-N-methylpiperidine]: the IC50 on M3 receptor stood at 13.1 ± 1.9 nM; on M1 receptor, 43.4 ± 10.6 nM.

In the case of `Cc1ccc(O)c(C(CC2CCCCN2C)c2ccccc2F)c1` (stereo not drawn) [II-7, 2-[2-(2-fluorophenyl)-2-(2-hydroxy-5-methyl-phenyl)ethyl]-N-methylpiperidine], the IC50 was 210 ± 30 nM at M3 receptor and 230 ± 10 nM on M1 receptor.

As for `Cc1ccc(C(CC2CCCCN2C)c2cc(C)ccc2O)cc1` (stereo not drawn) [II-15, 2-[2-(4-tolyl)-2-(2-hydroxy-5-methyl-phenyl)-ethyl]-N-methylpiperidine], the IC50 was determined as 112 ± 20 nM on M3 receptor and 65.1 ± 11.7 nM on M1 receptor.

For `Cc1ccc(OC(=O)C(C)C)c(C(CC2CCCCN2C)c2ccccc2)c1` (stereo not drawn) [II-23, 2-[2-(2-isobutyryl estergroup-5-methyl-phenyl)-phenethyl]-N-methylpiperidine], at M3 receptor, the IC50 is 690 ± 160 nM and the “antagonistic activity against the M3 receptor, in words” value is “the activity is greatly decreased”. Also, on M1 receptor, the 50% inhibitory concentration (IC50) came to 1900 ± 500 nM and the “antagonistic activity against the M1 receptor, in words” value is listed as “the activity is greatly decreased”.

`CN1CCCCC1CC(c1ccccc1)c1cc(F)ccc1O` (single isomer, unassigned) [II-10a, 2-[2-(2-hydroxy-5-fluorophenyl)-phenethyl]-N-methylpiperidine]: the IC50 on M3 receptor was 49.3 nM; at M1 receptor, 53.2 ± 12.5 nM.

For `C[N+]1(C)CCCCC1CC(c1ccccc1O)c1ccccc1O` (stereo not drawn) [I-3-I, 2-[2,2-bis(2-hydroxyphenyl)ethyl]-N,N-dimethylpiperidine Iodide], the IC50 on M3 receptor came to 6.9 ± 1.3 nM; at M1 receptor, 63.5 ± 15.1 nM.

For `Cc1ccc(O)c(C(CC2CCCC[N+]2(C)C)c2ccccc2)c1` (single isomer, unassigned) [I-4b-Br, 2-[2-(2-hydroxy-5-methyl-phenyl)-phenethyl]-N,N-dimethylpiperidine Bromide], the IC50 on M3 receptor was found to be 47.7 ± 11.9 nM; on M1 receptor, 61 ± 21.8 nM.

For the molecule `CCc1ccc(O)c(C(CC2CCCC[N+]2(C)C)c2ccccc2)c1` (stereo not drawn) [I-5-I, 2-[2-(2-hydroxy-5-ethyl-phenyl)-phenethyl]-N,N-dimethylpiperidine Iodide], the values for the half-inhibitory concentration (IC50) on M3 receptor and at M1 receptor were 18.8 ± 2.3 nM and 20 ± 2.3 nM, respectively.

With `COc1ccccc1C(CC1CCCCN1C)c1ccccc1` (stereo not drawn) [II-17], the IC50 at M3 receptor came out at 3420 ± 330 nM; at M1 receptor it was 6700 ± 810 nM.

With `Cc1ccc(O)c(C(CC2CCC[N+]2(C)C)c2ccccc2)c1` (stereo not drawn) [I-19, 2-[2-(2-hydroxy-5-methyl-phenyl)-phenethyl]-N,N-dimethylpyrrolidine Bromide], the IC50 was determined as 29.9 ± 4.7 nM at M3 receptor and 41 ± 9.2 nM at M1 receptor.

For the molecule `CCCc1ccc(O)c(C(CC2CCCC[N+]2(C)C)c2ccccc2)c1` (stereo not drawn) [I-6, 2-[2-(2-hydroxy-5-propyl-phenyl)-phenethyl]-N,N-dimethylpiperidine Bromide], the values for the IC50 on M3 receptor and on M1 receptor were 20.3 ± 3.6 nM and 133 ± 22.8 nM, respectively.

For the molecule `Cc1ccc(O)c(C(CC2CCCN2C)c2ccccc2)c1` (stereo not drawn) [II-19], the IC50 on M3 receptor stood at 137 ± 22.9 nM; at M1 receptor, 74.5 ± 6 nM.

Turning to `Cc1ccc(OC(=O)C(C)C)c(C(CC2CCCC[N+]2(C)C)c2ccccc2)c1` (stereo not drawn) [I-23, 2-[2-(2-isobutyryl estergroup-5-methyl-phenyl)-phenethyl]-N,N-dimethylpiperidine Bromide], the IC50 is 790 ± 75 nM at M3 receptor and 2530 ± 480 nM on M1 receptor.

Consider `Cc1ccc(O)c(C(CC2CCCC[N+]2(C)C)c2ccccc2)c1` (stereo not drawn) [I-4a-I, 2-[2-(2-hydroxy-5-methyl-phenyl)-phenethyl]-N,N-dimethylpiperidine Iodide], for which the IC50 on M3 receptor came to 9.3 ± 1 nM; at M1 receptor it was 13.8 ± 1.5 nM.

`Cc1ccc(OC(=O)c2ccccc2)c(C(CC2CCCCN2C)c2ccccc2)c1` (stereo not drawn) [II-25, 2-[2-(2-benzoate Group-5-methyl-phenyl)-phenethyl]-N-methylpiperidine]: at M3 receptor, the IC50 was determined as 2970 ± 700 nM and the “antagonistic activity against the M3 receptor, in words” value was “the activity is greatly decreased”. Also, on M1 receptor, the IC50 was 1600 ± 200 nM and the “antagonistic activity against the M1 receptor, in words” value was “the activity is greatly decreased”.

As to `Cc1ccc(O)c(C(CC2CCCC[N+]2(C)CCCOc2ccccc2)c2ccccc2)c1.[Br-]` (racemic) [I-4a-PrOPh, 2-[2-(2-hydroxy-5-methyl-phenyl)-phenethyl]-N-methyl, N-phenoxypropyl Piperidine Bromide], at M3 receptor, the IC50 amounted to 279 ± 128 nM and the “antagonistic activity against the M3 receptor, in words” value was “a significant decrease in activity”. For the same molecule, on M1 receptor, the IC50 turned out to be 295 ± 136 nM.
